Experiment [1] deals with HT-22 cells. The experiment can be described thus: Protection against cell death (cell viability) induced by glutamate in HT-22 cells. Format: cell-based. To be noted: Mus musculus.
Description: HT-22 cells (gift from Dr. David Schubert, Salk Institute, San Diego, Calif.) were plated at 4,000 cells per well in 96 well plates and cultured over night. […] At the end of the 24 hours, the medium was removed and the plates were rinsed with PBS and incubated with 10 μM calcein-AM (Invitrogen, Carlsbad, Calif.) in PBS for 20 minutes. […] Cell culture wells treated with bleach before rinsing were used as blank.
Experiment [2] relates to mitochondrial complex III. In words: Mitochondrial complex III activity assay. Format: biochemical, rat. Conditions: data not shown. The method, then:
(§1) Fresh rat heart was removed and placed in ice-cold mitochondrial isolation buffer containing 210 mM mannitol, 70 mM sucrose, 5 mM HEPES, and 1 mM EDTA, pH 7. The heart was homogenized immediately, and the mitochondrial fraction was isolated by differential centrifugation as described previously (Trounce et al., 1996). Mitochondria were stored at −80° C. until subsequent analysis.
All mitochondrial activity assays were performed according to previous publications with minimal modifications for complex I (Lenaz et al., 2004), complex I-III, complex II, complex III, and II-III (Trounce et al., 1996). […] Complex I activity was monitored by adding NADH to the mix with or without rotenone/antimycin A. The final data were normalized to blank values at time zero. The reaction was monitored in a kinetic spectrophotometer at 340 nm. Complex I activity was measured in arbitrary units and normalized to control levels for statistical analysis. Isolated mitochondria equivalent to 40-200 μg mitochondrial protein was used for each assay, except for assays with inhibitors, when larger amount of mitochondria (3 to 5 folds) were used to ensure that inhibition was distinguishable. Final data were normalized to control levels. For complex I-III activity, the reaction was initiated with the addition of NADH, cyt c was used as final substrate and its reduction was monitored at 550 nm. […]

Experiment [3] deals with HT-22 cells. The experiment can be described thus: Protection against mitochondrial membrane potential collapse induced by glutamate in HT-22 cells. Format: cell-based. To be noted: Mus musculus.
The test system of experiment [4] is preclinical animal model of Alzheimer's disease. In words: Preclinical animal model of Alzheimer's disease, MB supplemented diet. Format: in vivo. Conditions: long term feeding of MB supplemented diet.
For experiment [5], the system named is rotenone induced rat model of PD.
Description: (§3) Rats were assigned to three groups: control animals received vehicle infusion and daily saline injection (Veh/Sal N=6-8); a second group received rotenone infusion at the dose of 5 mg/kg/day and daily saline injection (ROT/Saline N=8-11); and the third group received rotenone infusion (5 mg/kg/day) and MB injection at the dose of 500 μg/kg/day (ROT/MB N=8-10). Vehicle or rotenone was infused via Alzet osmotic mini pumps that were filled with vehicle or rotenone dissolved in vehicle (equal volumes of dimethylsulfoxide and polyethylene glycol). Pumps containing vehicle or rotenone were sterilized with UV irradiation and implanted subcutaneously on the back. Intraperitoneal injections were administered with normal saline or MB, 500 μg/kg/day, diluted in normal saline to 500 μl of final volume. Rats were sacrificed on day 8 at four hours after last dose of MB or saline treatment.
After completion of neurological assessments and behavioral tests, rats were killed on the 8th day of rotenone infusion under anesthesia induced by xylazine (20 mg/kg, i.p.) and ketamine (100 mg/kg, i.p.). All osmotic pumps were checked for the residual liquid to ensure proper drug delivery. One hemisphere was fixed by 4% paraformaldehyde in phosphate buffer for 48 hr until processing for sectioning. The other hemisphere was snap-frozen in liquid nitrogen, and kept at −80° C. until extraction for biochemical analysis.
Rat hemispheres were sequentially incubated in 10%, 20% and 30% sucrose over night. The brains were then frozen in optimal cutting temperature) compound (VWR, San Francisco Calif.) and sectioned in the coronal plane with a cryostat to produce 20 μm floating sections. For single immunohistochemistry studies, 20-μm sections were blocked with 5% normal goat serum and incubated in primary antibodies at 4° C. over night. […] Double stained sections were examined with conventional fluorescence microscopy, and images were captured on a Zeiss microscope linked to an image analysis system with selective filter sets to visualize FITC, rhodamine, and DAPI separately. […]
Experiment [6] has as its system mitochondrial complex I-III. Format: biochemical, rat. As to the method: as §1
(§2) All mitochondrial activity assays were performed according to previous publications with minimal modifications for complex I (Lenaz et al., 2004), complex I-III, complex II, complex III, and II-III (Trounce et al., 1996). […] Complex I activity was monitored by adding NADH to the mix with or without rotenone/antimycin A. The final data were normalized to blank values at time zero. The reaction was monitored in a kinetic spectrophotometer at 340 nm. Complex I activity was measured in arbitrary units and normalized to control levels for statistical analysis. Isolated mitochondria equivalent to 40-200 μg mitochondrial protein was used for each assay, except for assays with inhibitors, when larger amount of mitochondria (3 to 5 folds) were used to ensure that inhibition was distinguishable. Final data were normalized to control levels. For complex I-III activity, the reaction was initiated with the addition of NADH, cyt c was used as final substrate and its reduction was monitored at 550 nm. For assay of complex II-III activity, succinate was added instead of NADH, and the electron transfer to cyt c was performed according to previous publications (Atamna et al., 2008). To test whether the electrons from the reduced form of MB (MBH2) can be transferred to cyt c in mitochondrial lysate, we added 10 μM 2,7-dichlorofluorescin (DCFH, Invitrogen, Carlsbad, Calif.) to the reaction system. Free radicals convert non-fluorescent DCFH to highly fluorescent DCF (Ex, 488 nm, and Em, 530 nm). In the presence of cyt c, which accepts electrons from MBH2, conversion of DCFH to DCF is decreased.

Experiment [7] concerns rotenone induced rat model of PD. In words: Rotenone model of PD: body weight, neurological and behavioral assessment. Format: in vivo. Conditions: MB 500 μg/kg/day i.p.
Description: as §3
The accelerating rotarod, a motor driven treadmill (Omnitech Electronics, Columbus, Ohio) measures running coordination and motor performance. The rotor consisted of a nylon cylinder with a 7 cm diameter mounted horizontally 35.5 cm above a padded surface. On a given trial, the rats were placed on the cylinder, the cylinder was rotated, and a timer switch was simultaneously activated. Acceleration continued from 0 to a maximum of 44 rpm until animals were unable to stay on top of the rotating rod and fell to the padded surface. […] When the rat landed on the surface, a photosensitive switch was tripped and the timer stopped. Rats were subjected to this test two sessions a day, three trials per session, for 7 sessions. A 20-minute resting period was given between each trial. Animals were given at least two hours break time between sessions each day. Retention times on the rotating treadmill were recorded and plotted for analysis.
Neurological assessment was performed by three evaluators blind to treatment conditions. The evaluators were initially trained until they produced consistent scores when evaluating rats in these tests. Subsequently, experimental subjects were randomized and presented to the evaluators individually. For each session, which consisted of three trials, an individual evaluator scored a rat in only one trial; thus, the final score for a session for each animal was the average score of the three evaluators. The category included: tremor; locomotion; bradykinesia; hypokinesia; posture; and gross motor skills.
Catalepsy was measured by standard bar test and grid test adapted from previous publication. For bar test, the rats were placed with both front paws grasp on a horizontal bar which was 9 cm above the surface. The time, each animal took to remove one paw from the bar was manually measured by a stopwatch. For grid test, rats were placed on a vertical wire grid (25.5 cm width and 44 cm high with a space of 1 cm between each wire) and catalepsy was determined by the length of time the animals maintained all four paws on the grid using a stopwatch. The maximum descent latency was set at 300 seconds for the bar test and 60 seconds for grid test.
For gait analysis, the fore and hind paws of each rat were painted with blue and red dye, respectively. The animals were allowed to walk across an absorbent paper covered straight alley runway (150 cm long, 20 cm wide, opaque walls 20 cm tall) into a dark compartment. Before the test, animals were put in the dark compartment for 2 minutes to habituate to the environment and 3 pre-training runs were conducted for all rats. Three trials were conducted to obtain clear footprints for each animal. Prolonged stop or turning backward in the runway was considered failed trials. The distance of individual steps were analyzed by two independent blinded observers.
Experiment [8] relates to HT-22 cells. The experiment can be described thus: Mitochondrial superoxide and cellular ROS analysis, rotenone treated cells. Format: cell-based. Conditions: MB 100 ng/ml. As to the method:
Mitochondrial specific superoxide and cellular ROS were measured with specific fluorescent probes. Briefly, HT-22 cells were treated with vehicle or 2 μM rotenone, with or without 100 ng/ml MB for 4 hr. The cells were dissociated, then incubated in pre-warmed PBS containing 0.5% BSA and H2DCFDA (Cellular ROS) or MitoSox (mitochondrial superoxide) for 15 min at 37° C., followed by washing with PBS. The cells were then resuspended in supplemented RPMI-1640 for further incubation. The cells were analyzed with FITC channel (Cellular ROS), or PE channel (MitoSox) using a BD™ LSRII flow cytometer.

The test system of experiment [9] is mitochondrial complex I. The experiment can be described thus: Mitochondrial complex I activity assay (NADH dehydrogenase). To be noted: in place of CoQ1. Format: biochemical, rat. As to the method: as §1, §2

As for `CN(C)c1ccc2nc3ccc(=[N+](C)C)cc-3sc2c1` [methylene blue], the concentration giving a half-maximal response (EC50) in experiment [1] (HT-22, glutamate toxicity, HT22 cells, read-out: EC50 against glutamate toxicity in HT22 cells) turned out to be 0.176 nM. The EC50 in [1] (glutamate, HT-22 cells, read-out: Protection against cell death (EC50)) turned out to be 18.8 nM. Further, in [2], the “Effect on complex III activity alone” value is on record as “no significant effect”. Besides, it took 17.7 nM to reach a half-maximal effect in experiment [3] (EC50). In addition, in experiment [4], the Cognitive functions result is “improves cognitive functions” and the Maximal performance result is “improves maximal performance”. For the same compound, in experiment [5] (ROT/MB animals), the “TH-positive cells and nerve fiber in SNC and VTN” value was “a sufficient amount of TH-positive cell and nerve fiber were observed”. The “Fluoro-jade B-positive TH neurons” value in [5] (ROT/MB group, 4 out of 11 ROT/Sal animals positive) is “not found”. For the same compound, in [5] (ROT/MB group, 6 out 11 ROT/Sal rats positive), the “Ubiquitin positive inclusion bodies” value is “not found”. Moreover, the “Complex I-III activity, % of the control level” value in [6] (1 μg/ml MB, in the presence of antimycin A) turned out to be 674±99%. Moreover, the “Complex I-III activity, % of control” value in experiment [6] (1 μg/ml MB, in the presence of rotenone) amounted to 118.1±6.4%. The “Increase of complex I-III activity” value in experiment [6] (increasing doses of MB (0.1-1 μg/ml)) is on record as “up to nine-fold increase”. In experiment [7], the “Catalepsy, bar test descent latency” value is given as “completely reversed”; the “Catalepsy, grid test latency to fall” value is recorded as “attenuated”; the “Neurological scores (randomized blinded assessment)” value is “significantly improved”; the Rotarod performance deficits result is listed as “almost completely prevented”. Moreover, in experiment [7], the “Rotenone induced body weight loss” value is “attenuated” and the “Stride length in gait analysis” value was “improved”. For the same compound, in experiment [8], the “Increase of mitochondrial superoxide (MitoSox probe)” value is recorded as “almost completely blocked” and the “Increase of total cellular ROS (DCFH2-DA)” value is on record as “almost completely blocked”. Further, the “Substrate of NADH dehydrogenase in complex I (accepts electrons from NADH)” value in experiment [9] is “can completely replace CoQ1 as a direct substrate”.
